Reference: article PMC7411887, “New Paracyclophanylthiazoles with Anti-Leukemia Activity: Design, Synthesis, Molecular Docking, and Mechanistic Studies” (Molecules, 2020)

Key:
[1] = test system: leukemia SR; assay: MTT antiproliferative assay; details: Homo sapiens, read-out: Cytotoxicity IC50 L.SR
[2] = test system: leukemia RPMI-8226; assay: MTT antiproliferative assay; details: Homo sapiens, RPMI-8226, read-out: Cytotoxicity IC50 RPMI-8226, MTT; mean ± SD
[3] = test system: HL-60(TB); assay: NCI single-dose screen (SRB); format: cell-based; details: Homo sapiens; Leukemia HL-60(TB); 10^−5 M; read-out: Growth inhibition percentage
Experimental: (§1) The methodology of the NCI anticancer screening was described in detail elsewhere (http://www.dtp.nci.nih.gov). […] Tested compounds were added to the culture at a single concentration (10^−5 M) and the cultures were incubated for 48 h. End-point determinations were made with a protein binding dye, SRB. Results for each tested compound were reported as the percentage growth of the treated cells when compared to the untreated control cells. The percentage growth was evaluated spectrophotometrically versus controls not treated with test agents. All experiments were repeated three times (Table 1).
Briefly, the protocol was performed on 60 human tumor cell lines derived from different nine neoplastic diseases. […] If the results obtained met selection criteria, then the compound was tested again on all 60 cell lines in 5× 10-fold dilutions with the top dose being 10^−4 M or 150 μg/mL. Detailed methods are described in the Supplementary Materials related to this article. […]
on their site (http://www.dtp.nci.nih.gov). But briefly, the protocol performed at sixty human […]
National Cancer Institute, Bethesda, USA. If the results obtained meet selection criteria, then the […]
10-4 molar or 150 μg/mL. Detailed methods are described in supplementary material related to […]
2. MTT- Cytotoxicity assay method […]
should not exceed 10^6 cells/cm2. Each test should include a blank containing complete medium […]
salt solution without phenol red and serum. Add reconstituted MTT in an amount equal to 10% of the culture medium volume.

[4] = test system: PC-3; assay: NCI single-dose screen (SRB); format: cell-based; details: Homo sapiens; Prostate Cancer PC-3; 10^−5 M; read-out: Growth inhibition percentage
Experimental: as §1
(§2) Briefly, the protocol was performed on 60 human tumor cell lines derived from different nine neoplastic diseases. […] If the results obtained met selection criteria, then the compound was tested again on all 60 cell lines in 5× 10-fold dilutions with the top dose being 10^−4 M or 150 μg/mL. Detailed methods are described in the Supplementary Materials related to this article.
(§3) on their site (http://www.dtp.nci.nih.gov). But briefly, the protocol performed at sixty human
(§4) National Cancer Institute, Bethesda, USA. If the results obtained meet selection criteria, then the
(§5) 10-4 molar or 150 μg/mL. […]

[5] = test system: SR; assay: NCI single-dose screen (SRB); format: cell-based; details: Homo sapiens; Leukemia SR; 10^−5 M; read-out: Growth inhibition percentage
Experimental: as §1, §2, §3, §4, §5

[6] = test system: CAKI-1; assay: NCI single-dose screen (SRB); format: cell-based; details: Homo sapiens; Renal Cancer CAKI-1; 10^−5 M; read-out: Growth inhibition percentage
Experimental: as §1, §2, §3, §4, §5

[7] = test system: UO-31; assay: NCI single-dose screen (SRB); format: cell-based; details: Homo sapiens; Renal Cancer UO-31; 10^−5 M; read-out: Growth inhibition percentage
Experimental: as §1, §2, §3, §4, §5

[8] = test system: SNB-75; assay: NCI single-dose screen (SRB); format: cell-based; details: Homo sapiens; CNS Cancer SNB-75; 10^−5 M; read-out: Growth inhibition percentage
Experimental: as §1, §2, §3, §4, §5

[9] = test system: NCI-H522; assay: NCI single-dose screen (SRB); format: cell-based; details: Homo sapiens; Non-Small-Cell Lung Cancer NCI-H522; 10^−5 M; read-out: Growth inhibition percentage
Experimental: as §1, §2, §3, §4, §5

[10] = test system: M14; assay: NCI single-dose screen (SRB); format: cell-based; details: Homo sapiens; Melanoma M14; 10^−5 M; read-out: Growth inhibition percentage
Experimental: as §1, §2, §3, §4, §5

[11] = test system: SK-MEL-5; assay: NCI single-dose screen (SRB); format: cell-based; details: Homo sapiens; Melanoma SK-MEL-5; 10^−5 M; read-out: Growth inhibition percentage
Experimental: as §1, §2, §3, §4, §5

[12] = test system: T-47D; assay: NCI single-dose screen (SRB); format: cell-based; details: Homo sapiens, T47D; Breast Cancer T-47D; 10^−5 M; read-out: Growth inhibition percentage
Experimental: as §1, §2, §3, §4, §5

[13] = test system: SF-268; assay: NCI single-dose screen (SRB); format: cell-based; details: Homo sapiens; CNS Cancer SF-268; 10^−5 M; read-out: Growth inhibition percentage
Experimental: as §1, §2, §3, §4, §5

[14] = test system: SF-295; assay: NCI single-dose screen (SRB); format: cell-based; details: Homo sapiens; CNS Cancer SF-295; 10^−5 M; read-out: Growth inhibition percentage
Experimental: as §1, §2, §3, §4, §5

[15] = test system: MALME-3M; assay: NCI single-dose screen (SRB); format: cell-based; details: Homo sapiens; Melanoma MALME-3M; 10^−5 M; read-out: Growth inhibition percentage
Experimental: as §1, §2, §3, §4, §5

[16] = test system: SF-539; assay: NCI single-dose screen (SRB); format: cell-based; details: Homo sapiens; CNS Cancer SF-539; 10^−5 M; read-out: Growth inhibition percentage
Experimental: as §1, §2, §3, §4, §5

[17] = test system: RPMI-8226; assay: NCI single-dose screen (SRB); format: cell-based; details: Homo sapiens; Leukemia RPMI-8226; 10^−5 M; read-out: Growth inhibition percentage
Experimental: as §1, §2, §3, §4, §5

[18] = test system: HCT-15; assay: NCI single-dose screen (SRB); format: cell-based; details: Homo sapiens; Colon Cancer HCT-15; 10^−5 M; read-out: Growth inhibition percentage
Experimental: as §1, §2, §3, §4, §5

[19] = test system: HT29; assay: NCI single-dose screen (SRB); format: cell-based; details: Homo sapiens, HT-29; Colon Cancer HT29; 10^−5 M; read-out: Growth inhibition percentage
Experimental: as §1, §2, §3, §4, §5

[20] = test system: DU-145; assay: NCI single-dose screen (SRB); format: cell-based; details: Homo sapiens; Prostate Cancer DU-145; 10^−5 M; read-out: Growth inhibition percentage
Experimental: as §1, §2, §3, §4, §5

[21] = test system: BT-549; assay: NCI single-dose screen (SRB); format: cell-based; details: Homo sapiens; Breast Cancer BT-549; 10^−5 M; read-out: Growth inhibition percentage
Experimental: as §1, §2, §3, §4, §5

[22] = test system: OVCAR-5; assay: NCI single-dose screen (SRB); format: cell-based; details: Homo sapiens; Ovarian Cancer OVCAR-5; 10^−5 M; read-out: Growth inhibition percentage
Experimental: as §1, §2, §3, §4, §5

[23] = test system: UACC-62; assay: NCI single-dose screen (SRB); format: cell-based; details: Homo sapiens; Melanoma UACC-62; 10^−5 M; read-out: Growth inhibition percentage
Experimental: as §1, §2, §3, §4, §5

[24] = test system: SK-MEL-28; assay: NCI single-dose screen (SRB); format: cell-based; details: Homo sapiens; Melanoma SK-MEL-28; 10^−5 M; read-out: Growth inhibition percentage
Experimental: as §1, §2, §3, §4, §5

[25] = test system: COLO 205; assay: NCI single-dose screen (SRB); format: cell-based; details: Homo sapiens; Colon Cancer COLO 205; 10^−5 M; read-out: Growth inhibition percentage
Experimental: as §1, §2, §3, §4, §5

[26] = test system: OVCAR-4; assay: NCI single-dose screen (SRB); format: cell-based; details: Homo sapiens; Ovarian Cancer OVCAR-4; 10^−5 M; read-out: Growth inhibition percentage
Experimental: as §1, §2, §3, §4, §5

SMILES	IC50 [1] [µM]	IC50 [2] [µM]	inhibition at 10 µM [3] [%]	inhibition at 10 µM [4] [%]	inhibition at 10 µM [5] [%]	inhibition at 10 µM [6] [%]	inhibition at 10 µM [7] [%]	inhibition at 10 µM [8] [%]	inhibition at 10 µM [9] [%]	inhibition at 10 µM [10] [%]	inhibition at 10 µM [11] [%]	inhibition at 10 µM [12] [%]	inhibition at 10 µM [13] [%]	inhibition at 10 µM [14] [%]	inhibition at 10 µM [15] [%]	inhibition at 10 µM [16] [%]	inhibition at 10 µM [17] [%]	inhibition at 10 µM [18] [%]	inhibition at 10 µM [19] [%]	inhibition at 10 µM [20] [%]	also measured
C=CCN1C(=O)C(=CC(=O)OC)SC1=NNC(=O)c1cc2ccc1CCc1ccc(cc1)CC2 [Compound 3d]	22.06 ± 0.0679	17.81 ± 0.0544	8.16	51.6	98.2	5.23	24.6	21.9	39.2	21.1	7.53	25	0	6.42	7.56	0.33	109	33.1	54	0	inhibition at 10 µM [21]: 38.3%; inhibition at 10 µM [22]: 3.9%; inhibition at 10 µM [23]: 22.8%; inhibition at 10 µM [24]: 0%; inhibition at 10 µM [25]: 0%; inhibition at 10 µM [26]: 2.93%
CCN1C(=O)C(=CC(=O)OC)SC1=NNC(=O)c1cc2ccc1CCc1ccc(cc1)CC2 [Compound 3e]	5.04 ± 0.0791	3.17 ± 0.0489	11.6	43.3	113	0	21	21.2	40.3	12.8	7.5	5.77	2.18	3.13	8.06	9.82	114	31.6	54.8	0	inhibition at 10 µM [21]: 7.73%; inhibition at 10 µM [22]: 0%; inhibition at 10 µM [23]: 21.4%; inhibition at 10 µM [24]: 0%; inhibition at 10 µM [25]: 0%; inhibition at 10 µM [26]: 10%
